Assay results from ChEMBL document CHEMBL3797167, “Development of a peptide-based inducer of nuclear receptors degradation” (Bioorg Med Chem Lett, 2016).
The source made the active and inactive calls. No cut-off for these calls is given here.

Tests used:
[1] = target: T1, Estrogen receptor (Homo sapiens) (UniProt P03372); assay: Induction of ERalpha degradation in human MCF7 cells after 6 hrs by Western blot analysis; type: cell-based
T1 sequence (whole entry): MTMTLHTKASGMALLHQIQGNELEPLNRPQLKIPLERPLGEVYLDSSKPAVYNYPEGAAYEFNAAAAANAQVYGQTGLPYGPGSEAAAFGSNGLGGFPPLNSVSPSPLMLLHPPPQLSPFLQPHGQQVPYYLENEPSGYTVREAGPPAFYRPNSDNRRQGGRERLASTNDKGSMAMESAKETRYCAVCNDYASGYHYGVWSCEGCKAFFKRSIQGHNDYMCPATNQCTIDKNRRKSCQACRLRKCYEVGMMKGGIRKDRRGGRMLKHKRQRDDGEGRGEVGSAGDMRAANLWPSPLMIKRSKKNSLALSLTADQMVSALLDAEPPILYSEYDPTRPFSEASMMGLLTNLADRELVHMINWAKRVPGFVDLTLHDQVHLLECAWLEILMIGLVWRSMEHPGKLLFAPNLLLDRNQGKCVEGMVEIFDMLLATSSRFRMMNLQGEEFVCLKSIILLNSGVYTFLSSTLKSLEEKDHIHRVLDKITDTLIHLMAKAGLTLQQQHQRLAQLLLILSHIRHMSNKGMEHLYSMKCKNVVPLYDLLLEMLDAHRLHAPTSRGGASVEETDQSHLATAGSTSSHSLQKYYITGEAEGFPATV

[2] = target: T2, Androgen receptor (Homo sapiens) (UniProt P10275); assay: Induction of AR degradation in human MCF7 cells at 3 to 6 uM after 6 hrs by Western blot in presence of MG132; type: cell-based
T2 sequence (whole entry): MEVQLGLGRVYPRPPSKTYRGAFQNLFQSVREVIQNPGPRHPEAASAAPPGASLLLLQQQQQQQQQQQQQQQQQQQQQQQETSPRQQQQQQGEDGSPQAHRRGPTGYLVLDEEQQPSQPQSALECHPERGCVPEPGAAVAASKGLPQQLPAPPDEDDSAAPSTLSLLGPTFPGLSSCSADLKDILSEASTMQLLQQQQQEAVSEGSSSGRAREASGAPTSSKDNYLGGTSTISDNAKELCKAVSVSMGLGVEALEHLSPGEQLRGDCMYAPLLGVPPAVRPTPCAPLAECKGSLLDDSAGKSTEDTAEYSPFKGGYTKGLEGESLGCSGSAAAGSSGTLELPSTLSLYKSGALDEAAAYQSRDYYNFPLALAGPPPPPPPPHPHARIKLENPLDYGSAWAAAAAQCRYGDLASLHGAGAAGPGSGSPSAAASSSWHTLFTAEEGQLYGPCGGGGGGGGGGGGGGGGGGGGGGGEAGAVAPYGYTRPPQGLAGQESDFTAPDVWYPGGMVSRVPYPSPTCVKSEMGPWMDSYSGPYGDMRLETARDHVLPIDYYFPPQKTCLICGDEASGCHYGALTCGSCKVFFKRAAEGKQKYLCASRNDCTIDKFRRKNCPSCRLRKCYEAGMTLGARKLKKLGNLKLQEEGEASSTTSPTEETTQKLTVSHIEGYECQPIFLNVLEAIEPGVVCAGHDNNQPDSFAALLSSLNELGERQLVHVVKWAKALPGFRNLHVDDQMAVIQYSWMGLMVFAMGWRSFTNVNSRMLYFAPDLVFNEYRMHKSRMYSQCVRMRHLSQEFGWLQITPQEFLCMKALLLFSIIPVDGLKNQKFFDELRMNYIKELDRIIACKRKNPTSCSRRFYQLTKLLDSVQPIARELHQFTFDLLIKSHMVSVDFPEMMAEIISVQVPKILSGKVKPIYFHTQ

[3] = target: T3, Aryl hydrocarbon receptor (Homo sapiens, UniProt P35869); assay: Induction of AhR degradation in human MCF7 cells at 3 to 6 uM after 6 hrs by Western blot analysis; type: cell-based; details: mcf7, 6 h
T3 sequence (P35869 whole entry): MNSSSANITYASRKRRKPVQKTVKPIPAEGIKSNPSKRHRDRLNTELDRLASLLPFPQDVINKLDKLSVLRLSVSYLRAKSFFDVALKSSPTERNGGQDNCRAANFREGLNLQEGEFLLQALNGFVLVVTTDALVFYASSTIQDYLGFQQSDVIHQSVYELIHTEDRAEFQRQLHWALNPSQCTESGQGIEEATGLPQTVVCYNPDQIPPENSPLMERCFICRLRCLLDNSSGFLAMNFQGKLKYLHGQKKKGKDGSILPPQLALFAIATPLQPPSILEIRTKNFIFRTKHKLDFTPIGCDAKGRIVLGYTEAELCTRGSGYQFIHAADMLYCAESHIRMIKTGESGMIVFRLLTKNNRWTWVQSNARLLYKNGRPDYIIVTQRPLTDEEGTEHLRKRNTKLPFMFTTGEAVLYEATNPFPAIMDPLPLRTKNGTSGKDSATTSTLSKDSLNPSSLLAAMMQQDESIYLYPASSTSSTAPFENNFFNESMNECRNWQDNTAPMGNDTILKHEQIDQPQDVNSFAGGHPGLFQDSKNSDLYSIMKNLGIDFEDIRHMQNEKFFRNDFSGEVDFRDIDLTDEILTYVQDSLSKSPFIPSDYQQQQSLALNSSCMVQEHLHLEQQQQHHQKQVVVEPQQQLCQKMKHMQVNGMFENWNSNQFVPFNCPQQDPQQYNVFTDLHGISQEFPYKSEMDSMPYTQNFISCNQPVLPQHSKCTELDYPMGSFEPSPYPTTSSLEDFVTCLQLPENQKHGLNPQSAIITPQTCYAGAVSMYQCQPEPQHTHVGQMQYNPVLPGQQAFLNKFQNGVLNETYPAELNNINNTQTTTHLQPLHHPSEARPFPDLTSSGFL

[4] = target: T2, Androgen receptor (Homo sapiens); assay: Induction of AR degradation in human MCF7 cells assessed as AR/actin ratio level at 3 uM after 6 hrs by Western blot analysis (reference value: 100%); type: cell-based
[5] = target: T1, Estrogen receptor (Homo sapiens); assay: Induction of ERalpha degradation in human MCF7 cells assessed as ERalpha/actin ratio level at 4.5 uM after 6 hrs by Western blot analysis (reference value: 100%); type: cell-based
[6] = target: T2, Androgen receptor (Homo sapiens); assay: Induction of AR degradation in human MCF7 cells at 3 to 6 uM after 6 hrs by Western blot analysis; type: cell-based
[7] = target: T2, Androgen receptor (Homo sapiens); assay: Induction of AR degradation in human MCF7 cells assessed as AR/actin ratio level at 4.5 uM after 6 hrs by Western blot analysis (reference value: 100%); type: cell-based
[8] = target: Aryl hydrocarbon receptor (Homo sapiens) (UniProt P35869); assay: Induction of AhR degradation in human MCF7 cells assessed as AhR/actin ratio level at 6 uM after 6 hrs by Western blot analysis (reference value: 100%)
[9] = target: Aryl hydrocarbon receptor (Homo sapiens) (UniProt P35869); assay: Induction of AhR degradation in human MCF7 cells assessed as AhR/actin ratio level at 3 uM after 6 hrs by Western blot analysis (reference value: 100%)
[10] = target: Baculoviral IAP repeat-containing protein 2 (Homo sapiens) (UniProt Q13490); assay: Induction of cIAP1 degradation in human MCF7 cells after 6 hrs by Western blot analysis; type: cell-based
[11] = target: T1, Estrogen receptor (Homo sapiens); assay: Induction of ERalpha degradation in human MCF7 cells assessed as ERalpha/actin ratio level at 6 uM after 6 hrs by Western blot analysis (reference value: 100%); type: cell-based
[12] = target: Aryl hydrocarbon receptor (Homo sapiens) (UniProt P35869); assay: Induction of AhR degradation in human MCF7 cells assessed as AhR/actin ratio level at 4.5 uM after 6 hrs by Western blot analysis (reference value: 100%)
[13] = target: T2, Androgen receptor (Homo sapiens); assay: Induction of AR degradation in human MCF7 cells assessed as AR/actin ratio level at 6 uM after 6 hrs by Western blot analysis (reference value: 100%); type: cell-based
[14] = tested on: MCF7; assay: Cytotoxicity against human MCF7 cells at >6 uM after 6 hrs; type: cell-based; details: mcf7, 6 h
[15] = target: T1, Estrogen receptor (Homo sapiens); assay: Induction of ERalpha degradation in human MCF7 cells assessed as ERalpha/actin ratio level at 3 uM after 6 hrs by Western blot analysis (reference value: 100%); type: cell-based
[16] = tested on: MCF7; assay: Cytotoxicity against human MCF7 cells at 10 uM after 6 hrs; type: cell-based; details: mcf7, 6 h
[17] = target: T1, Estrogen receptor (Homo sapiens); assay: Induction of ERalpha degradation in human MCF7 cells at 3 to 10 uM after 6 hrs by Western blot analysis; type: cell-based
[18] = target: T1, Estrogen receptor (Homo sapiens); assay: Induction of ERalpha degradation in human MCF7 cells assessed as ERalpha/actin ratio level at 10 uM after 6 hrs by Western blot analysis (reference value: 100%); type: cell-based
[19] = target: T1, Estrogen receptor (Homo sapiens); assay: Induction of ERalpha degradation in human MCF7 cells assessed as ERalpha/actin ratio level at 5 uM after 6 hrs by Western blot analysis (reference value: 100%); type: cell-based
[20] = target: T1, Estrogen receptor (Homo sapiens); assay: Induction of ERalpha degradation in human MCF7 cells assessed as ERalpha/actin ratio level at 1 uM after 6 hrs by Western blot analysis (reference value: 100%); type: cell-based
[21] = target: T1, Estrogen receptor (Homo sapiens); assay: Induction of ERalpha degradation in human MCF7 cells at 0.1 to 1 uM after 6 hrs by Western blot analysis; type: cell-based
[22] = target: Baculoviral IAP repeat-containing protein 2 (Homo sapiens) (UniProt Q13490); assay: Induction of cIAP1 degradation in human MCF7 cells at 1 uM after 6 hrs by Western blot analysis; type: cell-based
[23] = target: T1, Estrogen receptor (Homo sapiens); assay: Induction of ERalpha degradation in human MCF7 cells assessed as ERalpha/actin ratio level at 0.3 uM after 6 hrs by Western blot analysis (reference value: 100%); type: cell-based
[24] = target: T1, Estrogen receptor (Homo sapiens); assay: Induction of ERalpha degradation in human MCF7 cells assessed as ERalpha/actin ratio level at 0.1 uM after 6 hrs by Western blot analysis (reference value: 100%); type: cell-based
[25] = target: T1, Estrogen receptor (Homo sapiens); assay: Induction of ERalpha degradation in human MCF7 cells at 0.3 to 3 uM after 6 hrs by Western blot analysis; type: cell-based

Sequence of Baculoviral IAP repeat-containing protein 2 (Homo sapiens) (Q13490 whole entry): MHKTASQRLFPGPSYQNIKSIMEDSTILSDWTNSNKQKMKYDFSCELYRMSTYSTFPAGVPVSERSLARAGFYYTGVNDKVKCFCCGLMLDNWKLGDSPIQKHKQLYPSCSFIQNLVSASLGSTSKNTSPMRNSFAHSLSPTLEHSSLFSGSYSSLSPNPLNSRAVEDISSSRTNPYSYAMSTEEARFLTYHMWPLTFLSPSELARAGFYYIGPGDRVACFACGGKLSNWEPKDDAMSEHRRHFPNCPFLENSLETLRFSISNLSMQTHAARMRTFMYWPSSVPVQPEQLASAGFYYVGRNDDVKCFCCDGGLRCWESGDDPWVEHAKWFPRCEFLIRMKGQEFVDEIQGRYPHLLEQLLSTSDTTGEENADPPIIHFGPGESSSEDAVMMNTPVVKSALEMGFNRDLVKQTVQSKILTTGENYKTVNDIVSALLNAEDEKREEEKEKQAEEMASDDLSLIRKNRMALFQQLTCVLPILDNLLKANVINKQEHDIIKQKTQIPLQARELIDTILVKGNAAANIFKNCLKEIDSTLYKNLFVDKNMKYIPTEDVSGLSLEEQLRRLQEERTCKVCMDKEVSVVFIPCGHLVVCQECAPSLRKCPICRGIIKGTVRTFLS

## CC[C@H](C)[C@H]1NC(=O)[C@@H](NC(=O)[C@@H](N)CCCCNC(=O)COCCOCCNC(=O)COCCOCCNC(=O)[C@@H](NC(=O)[C@@H]2CCCN2C(=O)[C@H](NC(=O)[C@H](C)NC)C2CCCCC2)C(c2ccccc2)c2ccccc2)CSSC[C@H](C(=O)N[C@H](CCCNC(=N)N)C(=O)N[C@H](CC(C)(C)C)C(=O)N[C@H](CC(C)C)C(=O)N[C@H](CCC(N)=O)C(=O)NCC(=O)NCC(=O)NCC(=O)N[C@H](CCCNC(=N)N)C(=O)N[C@H](CCCNC(=N)N)C(=O)N[C@H](CCCNC(=N)N)C(=O)N[C@H](CCCNC(=N)N)C(=O)N[C@H](CCCNC(=N)N)C(=O)N[C@H](CCCNC(=N)N)C(=O)N[C@@H](CCCNC(=N)N)C(N)=O)NC(=O)[C@@H](CC(C)C)NC1=O
[1]
  Activity: Dose-dependent effect
[2]
  Activity: inactive
[3]
  Activity: Not Active
[4]
  Activity: 77%
[5]
  Activity: 87%
[6]
  Activity: Active
[7]
  Activity: 72%
[8]
  Activity: 137%
[9]
  Activity: 173%
[10]
  Activity: Dose-dependent effect
[11]
  Activity: 77%
[12]
  Activity: 178%
[13]
  Activity: 57%
[14]
  Activity: Toxic
[15]
  Activity: 87%

## CC[C@H](C)[C@H]1NC(=O)[C@@H](NC(=O)[C@H](CCCNC(=N)N)NC(=O)COCCOCCNC(=O)[C@@H](NC(=O)[C@@H]2CCCN2C(=O)[C@H](NC(=O)[C@H](C)NC)C2CCCCC2)C(c2ccccc2)c2ccccc2)CSSC[C@H](C(=O)N[C@H](CCCNC(=N)N)C(=O)N[C@H](CC(C)(C)C)C(=O)N[C@H](CC(C)C)C(=O)N[C@H](CCC(N)=O)C(=O)NCC(=O)NCC(=O)NCC(=O)N[C@H](CCCNC(=N)N)C(=O)N[C@H](CCCNC(=N)N)C(=O)N[C@H](CCCNC(=N)N)C(=O)N[C@H](CCCNC(=N)N)C(=O)N[C@H](CCCNC(=N)N)C(=O)N[C@H](CCCNC(=N)N)C(=O)N[C@@H](CCCNC(=N)N)C(N)=O)NC(=O)[C@@H](CC(C)C)NC1=O
[16]
  Activity: Toxic
[17]
  Activity: inactive
[18]
  Activity: 236%
[15]
  Activity: 96%
[19]
  Activity: 99%

## CC[C@H](C)[C@H]1NC(=O)[C@@H](NC(=O)[C@H](N)CCCCNC(=O)COCCOCCNC(=O)[C@@H](NC(=O)[C@@H]2CCCN2C(=O)[C@H](NC(=O)[C@H](C)NC)C2CCCCC2)C(c2ccccc2)c2ccccc2)CSSC[C@H](C(=O)N[C@H](CCCNC(=N)N)C(=O)N[C@H](CC(C)(C)C)C(=O)N[C@H](CC(C)C)C(=O)N[C@H](CCC(N)=O)C(=O)NCC(=O)NCC(=O)NCC(=O)N[C@H](CCCNC(=N)N)C(=O)N[C@H](CCCNC(=N)N)C(=O)N[C@H](CCCNC(=N)N)C(=O)N[C@H](CCCNC(=N)N)C(=O)N[C@H](CCCNC(=N)N)C(=O)N[C@H](CCCNC(=N)N)C(=O)N[C@@H](CCCNC(=N)N)C(N)=O)NC(=O)[C@@H](CC(C)C)NC1=O
[20]
  Activity: 92%
[21]
  Activity: inactive
[22]
  Activity: Active
[23]
  Activity: 100%
[24]
  Activity: 105%

## CC[C@H](C)[C@H]1NC(=O)[C@@H](NC(=O)[C@@H](N)CCCCNC(=O)[C@@H](NC(=O)[C@@H]2CCCN2C(=O)[C@H](NC(=O)[C@H](C)NC)C2CCCCC2)C(c2ccccc2)c2ccccc2)CSSC[C@H](C(=O)N[C@H](CCCNC(=N)N)C(=O)N[C@H](CC(C)(C)C)C(=O)N[C@H](CC(C)C)C(=O)N[C@H](CCC(N)=O)C(=O)NCC(=O)NCC(=O)NCC(=O)N[C@H](CCCNC(=N)N)C(=O)N[C@H](CCCNC(=N)N)C(=O)N[C@H](CCCNC(=N)N)C(=O)N[C@H](CCCNC(=N)N)C(=O)N[C@H](CCCNC(=N)N)C(=O)N[C@H](CCCNC(=N)N)C(=O)N[C@@H](CCCNC(=N)N)C(N)=O)NC(=O)[C@@H](CC(C)C)NC1=O
[20]
  Activity: 114%
[25]
  Activity: inactive
[15]
  Activity: 95%
[23]
  Activity: 109%
